Consider five compounds from US20130171067A1, “[…]-99m COMPLEX AS A TOOL FOR THE IN VIVO DIAGNOSIS OF CANCEROUS TUMOURS” (PIERRE FABRE MEDICAMENT, priority 2010, published 2013).

In series [1] the test system is B16/F10 mouse melanoma cells. In words: Tumour fixation, full-body scintigraphy of mice grafted with B16/F10 tumours (tumour-to-muscle ratio, spermine competition). Type of series: in vivo. As to conditions: protocol of example 30, 1). How it is done: 10 days post-grafting, the radiolabelled probe was injected into the mice. Imaging was performed according to the protocol described in example 24 above.
B16/F10 mouse melanoma cells (2.5.10^5 cells) were injected subcutaneously in the right back paw of male C57BL/6 mice. 10 days post-grafting, the complex having formula (II) (14.8 MBq) was injected into 18 mice, 400 μg of spermine having been previously injected into 8 of these mice. Full-body scintigraphic images were then produced 30 min and 2 hours post-injection. For this, the mice, anaesthetised with isoflurane gas, were imaged in the ventral decubitus position on a gamma-camera (γ Imager, BIOSPACE Mesures) with IRIS software (Ariès Nucléaire, France) with the following parameters: • Spectral window: 121-164 KeV • Acquisition time: 3 min • Grid: 256*256
For all the images, a region of interest was plotted around the tumour and another of the same size was defined on the muscle of the contralateral paw to determine the tumour-to-muscle ratio.
The study was conducted according to the protocol described in example 30, 1) above with other complexes having formula (II).

A further series deals with B16 cells. Description: In vitro incorporation in cells with spermine competition (gamma counter). As to conditions: 30 minutes incubation, 0.2 μM complex, increasing concentration of spermine, FIG. 1. It is filed as cell-based, mouse. How it is done:
(§1) A549 and B16 cells were placed in culture in 24-well plates (2.10^5 cells/well). After 24 hours, the cells were incubated for 30 minutes with the complex having formula (II) at various concentrations or with 0.2 μM of complex having formula (II) optionally in the presence of an increasing concentration of spermine used for evaluating competition with the probe. After incubation, the plates were placed on ice and the cells were rinsed with cold 0.9% NaCl supplemented with 1 mM of spermidine. The cells received a treatment with trypsin. They were suspended in PBS. The activity of each well was measured using a gamma counter.

The test system of another series is A549 cells. The description is as above. It is filed as cell-based. The conditions noted are these: 30 minutes incubation, 0.2 μM complex, increasing concentration of spermine, FIG. 1. As for the experimental part: as §1
The nature of series [2]: Plasmatic stability after intravenous injection (radio-HPLC of serum). Type of series: in vivo, mice. How it is done:
14.8 MBq of complex having formula (II) were injected intravenously to healthy male C57BL/6 mice. 30 minutes, 1 h, 2 h, 3 h and 5 hours post-injection, blood samples on heparin were taken from the retro-orbital cavity. These samples were then centrifuged for 5 minutes to collect at least 100 μL of serum. 50 enabled exclusion-diffusion radio-HPLC on a TSK SW2000 column+7.8*300 mm 5μ pre-column (Tosoh bioscience) with a mobile phase (flow rate of 1. ml/min at ambient temperature) consisting of 0.9% NaCl (100%). Macaque albumin labelled with ^99mTc was used to test the albumin retention time. The remaining 50 μL of serum was used to perform reverse-phase radio-HPLC, after protein denaturation with acetonitrile, on an XBridge C8 4.6*250 mm 5μ column (Waters, USA) with a mobile phase (flow rate of 1 ml/min at ambient temperature) consisting of water (55%), acetonitrile (45%) and TFA (0.1%).

The conditions of series [3]: mouse, in vivo.
A short description of series [4]: Biodistribution in healthy mice. The conditions noted are these: C57BL/6 mice, intravenous, 30 min to 24 hours post-injection.

Each structure is given as a SMILES string. Counter-ions that a name gives are not always drawn.

Consider `NCCCNCCCCNCCCNC(=O)c1ccc(N[NH][Tc]234([O]CC(CO)(CO)[N]2CC(=O)[O]3)[O]C(=O)C[N]4C(CO)(CO)CO)nc1`, for which, in series [1] (B16/F10 tumour in C57BL/6 mice), the Observations result is reported as “Tumour fixation”. Also, the “Effect of spermine on incorporation of the complex” value in the series with B16 cells and in the series with A549 cells was “partially inhibits” throughout. Also, the “Proportion of injected complex eliminated” value in series [2] (at 30 minutes after intravenous injection, healthy male C57BL/6 mice) came to 38%. In addition, the “Trans-chelation of Technetium on plasma albumin” value in series [2] (from 30 minutes after intravenous injection, exclusion-diffusion radio-HPLC) was “trans-chelated on the plasma albumin”. The “Complex stability in plasma” value in series [2] (reverse-phase radio-HPLC of serum, 30 minutes to 5 hours post-injection) is “good complex stability”. Besides, the “Risk of renal toxicity or side-effects due to dosimetry” value in series [3] is listed as “no risk of renal toxicity or side-effects due to dosimetry”. Moreover, the Distribution in organs entry in series [4] is recorded as “distributed quasi-homogeneously throughout the organs”. The Persistence of fixation result in series [4] is “only persists in the liver and kidneys”.
The melting point is the temperature, or range, at which the solid turns liquid. Turning to `NCCCNCCCCNCCCNC(=O)c1ccc(NNC(=O)C(F)(F)F)nc1` (as salt: hydrochloride) [Example 14, N-{3-[4-(3-amino-propylamino)-butylamino]-propyl}-6-[N′-(2,2,2-trifluoro-acetyl)-hydrazino]-nicotinamide], the melting point worked out at 237.5 °C.
Same read-out and setting: next, `NCCCCNCCCNC(=O)c1ccc(NN)nc1` (as salt: hydrochloride) [Example 6, N-[3-(4-amino-butylamino)-propyl]-6-hydrazino-nicotinamide]: 183 °C.
On to `NCCCCNC(=O)c1ccc(NN)nc1` [Example 3, N-(4-Amino-butyl)-6-hydrazino-nicotinamide], for which the “Tumour-to-muscle ratio compared with the other compounds” value in series [1] is reported as “lower than with the other compounds”.
On the same count and under the same terms, next, `NCCCCNCCCNC(=O)c1ccc(NN)nc1` [Example 6, N-[3-(4-amino-butylamino)-propyl]-6-hydrazino-nicotinamide]: “lower than with the other compounds”.
